Reference: patent US20140242609A1, “Diagnosis and treatment of kidney stones, methods and compositions therefor” (Washington University, priority 2013, published 2014)
Each block holds one molecule with its values, some of them ahead of it.

Key:
[1] = 24 hr urinalysis in metabolic cages, plasma and urine electrolytes; type: in vivo, mouse
Procedure: Age (9-10 weeks old) and sex (male) matched wild-type and CLDN14 KO mice were housed individually in metabolic cages (Harvard Apparatus) with free access to water and food for 24 hr. Urine was collected under mineral oil. The plasma and urine Ca^++ and Mg^2+ levels were determined with atomic flame absorption spectrophotometer (PerkinElmer). The plasma (P) and urine (U) electrolyte levels were determined with the Roche Cobas clinical analyzer (Roche Diagnostics). […] The fractional excretion of electrolytes was calculated using the following equation: FEion=V×Uion/(GFR×Pion), where GFR was calculated according to the clearance rate of creatinine (GFR=V×Ucreatinine/Pcreatinine).
Mice were housed individually in metabolic cages (Harvard Apparatus) with free access to water and food for 24 hr. Urine was collected under mineral oil. The plasma and urine Ca^++ and Mg^++ levels were determined with atomic flame absorption spectrophotometer (PerkinElmer). The creatinine levels were measured with an enzymatic method that was independent of plasma chromogens.

CLDN14 mRNA = CLDN14 mRNA levels in primary cultures / freshly isolated mouse TALH cells (real-time PCR); type: cell-based; settings: 0.01 μM; versus vehicle
Procedure: (§1) An immunomagnetic separation method was used to isolate the TAL cells from the mouse kidney (Hou et al., 2009). Antibodies against the TAL cell specific surface antigen, Tamm-Horsfall protein (THP), were coated onto the paramagnetic polystyrene beads (Dynabeads M-280; Dynal), allowing immunoprecipitation of the TAL cells from collagenase digested mouse kidneys. The isolated cells were plated in DMEM medium supplemented with 10% FBS, penicillin/streptomycin, and 1 mM sodium pyruvate for 16 hours, followed by immediate transfection with NFAT or antagomirs.
(§2) Total RNA including microRNA was extracted using Trizol (Invitrogen). Cellular mRNA was reverse transcribed using the Superscript-III kit (Invitrogen), followed by real-time PCR amplification using SYBR Green PCR Master Mix (Bio-Rad) and Eppendorf Realplex2S system. The design of claudin-14 primers was described above. The design of pri-miRNA primers was according to Ma et al., (2010). Results were expressed as 2^−ΔCt values with ΔCT=Ctgene−Ctβ-actin.
as §1, with “TALH” for “TAL”, “kidney. (Gong Y,” for “kidney (Hou”, “al. 2012 and Gong Y, et al. 2013)” for “al., 2009).”, “protein,” for “protein (THP),”, “treatment.” for “transfection with NFAT or antagomirs.”
Total RNA including microRNA was extracted using Trizol (Invitrogen). Cellular mRNA was reverse transcribed using the Superscript-III kit (Invitrogen), followed by real-time PCR amplification using SYBR Green PCR Master Mix (Bio-Rad) and Eppendorf Realplex2S system. […] Results were expressed as 2^−ΔCt values with ΔCT=Ctgene−Ctβ-actin. […]
Total RNA including microRNA was extracted using Trizol (Invitrogen). […] Results were expressed as 2^−ΔCt values with ΔCT=Ctgene−Ctβ-actin. […]

claudin-14 mRNA = claudin-14 mRNA levels in mouse kidney after systemic treatment (real-time PCR); type: in vivo; settings: 1 mg/kg BW−1; 4 hr
Procedure: NPS2143 and cinacalcet (Table 1) were dissolved in vehicle—20% (w/v) (2-Hydroxypropyl)-β-cyclodextrin solution and fed to mice with gavage syringe. Cyclosporin-A (Sandimmune; Table 1) was diluted in 0.9% saline and I.P. injected to animals. Control animals received vehicle injection (13% wiv Cremophor EL and 32.9% ethanol). For dietary Ca^2+ manipulation, animals were fed with the following diets for six consecutive days: basal diet: 0.61% Ca^2+ (TestDiet #5755); low Ca^2+ diet: 0 Ca^++ (TestDiet #5855); high Ca^2+ diet: 5% Ca^2+ (TestDiet #5AVB). All animals had free access to water and were housed under a 12 hr light cycle. Blood samples were taken by cardiac puncture rapidly after initiation of terminal anesthesia and centrifuged at 4° C. for 10 min. Kidney were dissected out and immediately frozen at −80° C.
as §2
SAHA and TsA were dissolved in 5% (w/v) ethanol/0.9% saline solution and fed to mice with gavage syringe. Furosemide was dissolved in 50% (w/v) DMSO/0.9% saline solution and I.P. injected to animals. All animals had free access to water and were housed under a 12 hr light cycle. Blood samples were taken by cardiac puncture rapidly after initiation of terminal anesthesia and centrifuged at 4° C. for 10 min. Kidney were dissected out and immediately frozen at −80° C.
Total RNA including microRNA was extracted using Trizol (Invitrogen). Cellular mRNA was reverse transcribed using the Superscript-III kit (Invitrogen), followed by real-time PCR amplification using SYBR Green PCR Master Mix (Bio-Rad) and Eppendorf Realplex2S system. The design of claudin-14 primers was described before by Gong et al., 2012. The design of pri-miRNA primers and ChIP primers was according to Gong et al., 2013. Results were expressed as 2^−ΔCt values with ΔCT=Ctgene−Ctβ-actin. […]
NPS2143 and cinacalcet (Table 9) were dissolved in vehicle −20% (w/v) (2-Hydroxypropyl)-β-cyclodextrin solution and fed to mice with gavage syringe. Cyclosporin-A (Sandimmune; Table 9) was diluted in 0.9% saline and I.P. injected to animals. Control animals received CNI vehicle injection (13% wiv Cremophor EL and 32.9% ethanol). FK506 was dissolved in CNI vehicle, diluted in 0.9% saline and I.P. injected to animals. For dietary Ca^+ manipulation, animals were fed with the following diets for six consecutive days: basal diet: 0.610% Ca^++ (TestDiet #5755); low Ca^++ diet: 0 Ca^++ (TestDiet #5855); high Ca^++ diet: 5% Ca^+ (TestDiet #5AVB). All animals had free access to water and were housed under a 12 hr light cycle. Blood samples were taken by cardiac puncture rapidly after initiation of terminal anesthesia and centrifuged at 4° C. for 10 min. Kidney were dissected out and immediately frozen at −80° C.
Total RNA including microRNA was extracted using Trizol (Invitrogen). Cellular mRNA was reverse transcribed using the Superscript-III kit (Invitrogen), followed by real-time PCR amplification using SYBR Green PCR Master Mix (Bio-Rad) and Eppendorf Realplex2S system. The design of claudin-14 primers was described before by Gong. Y., et al., 2012. The design of pri-miRNA primers was according to Ma. L., et al., 2010. Results were expressed as 2^−ΔCt values with ΔCT=Ctgene−Ctβ-actin.

CLDN14 = CLDN14 expression in cultured MKTAL cells; type: cell-based, mouse; settings: 1 nM, 10 nM and 100 nM
human CLDN16 (AF152101) = biological target: T1, human CLDN16 (AF152101) (human, UniProt Q9Y5I7 1-235); test: cell-based or functional assay
T1 sequence (looked up): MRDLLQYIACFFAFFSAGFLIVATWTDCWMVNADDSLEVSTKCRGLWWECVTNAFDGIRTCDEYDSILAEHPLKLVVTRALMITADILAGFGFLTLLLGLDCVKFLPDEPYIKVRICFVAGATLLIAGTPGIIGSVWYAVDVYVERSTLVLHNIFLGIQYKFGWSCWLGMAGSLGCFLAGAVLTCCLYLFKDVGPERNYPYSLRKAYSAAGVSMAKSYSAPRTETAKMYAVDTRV

[2] = WT pre-treated with furosemide 40 mg/kg BW−1 per day, Veh + Furo = furosemide alone

Molecule: NS(=O)(=O)c1cc(C(=O)O)c(NCc2ccco2)cc1Cl [Furo, Furosemide]
- ECa [1, 2]: 2.84 ± 0.78 ug/24 hr · g
- EMg [1, 2]: 13.24 ± 3.13 ug/24 hr · g
- FECa [1, 2]: 1.89 ± 0.67 %
- FEMg [1, 2]: 32.83 ± 1.30 %
- PCa [1, 2]: 10.61 ± 0.43 mg/dL
- PMg [1, 2]: 2.33 ± 0.11 mg/dL

Molecule: CC(/C=C/C(=O)NO)=C\[C@@H](C)C(=O)c1ccc(N(C)C)cc1 [TsA, Trichostatin A]
- CLDN14 mRNA levels, reduction (CLDN14 mRNA): 64%
- CLDN14 mRNA levels in the kidney, decrease (claudin-14 mRNA): 71%
- effects on renal Ca++ and Mg++ metabolism (compared with SAHA) ([1]; 1 mg/kg BW−1 per day): exerted similar effects

B1: PTH: human recombinant PTH (1-84; Sigma) (protein, UniProt P01270 32-115, looked up)
Parathyroid hormone: SVSEIQLMHNLGKHLNSMERVEWLRKKLQDVHNFVALGAPLAPRDAGSQRPRKKEDNVLVESHEKSLGEADKADVNVLTKAKSQ
modifications: Parathyroid hormone
- CLDN14 gene expression (CLDN14): no significant effect

- fold decrease of absolute Na+ permeability, CLDN14+16+19 versus CLDN16+19 (human CLDN16 (AF152101)): 2.43 fold
- fold reduction of PNa by CLDN14 in CLDN16 cell background (human CLDN16 (AF152101)): 2.03 fold
B2: mouse CLDN14 (AF314089) (other, UniProt Q9Z0S3 1-239, looked up)
chain: MASTAVQLLGFLLSFLGMVGTLITTILPHWRRTAHVGTNILTAVSYLKGLWMECVWHSTGIYQCQIYRSLLALPRDLQAARALMVISCLLSGMACACAVVGMKCTRCAKGTPAKTTFAVLGGALFLLAGLLCMVAVSWTTNDVVQNFYNPLLPSGMKFEIGQALYLGFISSSLSLIGGTLLCLSCQDEAPYRPYPPQSRAGATTTATAPAYRPPAAYKDNRAPSVTSAAHSGYRLNDYV
